This assay concerns BRK-BaF3 cells. The experiment in a line: Cell antiproliferative activity assay (CCK-8), BRK-BaF3. In kind it is cell-based. The following applies: 72 h, CCK-8, 3 days incubation. Here is the method: The activity of compounds against BRK kinase can be evaluated by their inhibition of the growth of the BRK kinase-stably transfected BaF3 cell line (BRK-BaF3) and wild-type BaF3 cells (WT-BaF3). […] The larger the ratio of the half-maximal growth inhibitory concentration (IC50) of a compound between WT-BaF3 and BRK-BaF3 cells, the better the selectivity of the compound.
BRK-BaF3, WT-BaF3, WEHI cell line, and breast cancer cell line T47D were cultured using RPMI 1640 Basal medium or DMEM (Dulbecco's Modified Eagle Medium) (Shanghai Peiyuan Biotechnology, L220KJ), supplemented with 10% FBS (Gibco, REF 10099-141C) and 1% P/S (Shanghai Peiyuan Biotechnology, S110JV), in an incubator (Thermo 3020) at 37°C with 5% CO2. Cell viability was above 95%. Cells were passaged at a 3:1 ratio every 3-4 days. For WT-BaF3 cells, WEHI cells were first cultured, and their culture supernatant was filtered through a 0.22 µm filter. This supernatant was added at 10% to the regular culture medium to supplement IL-3 required for WT-BaF3 cell proliferation, which served as the culture medium for WT-BaF3. For testing, cells were first collected and counted, then prepared into a cell suspension at 100,000 cells/mL and plated at 100 µL per well. Drug concentrations started from 10 µM and were serially diluted 3:1. After incubation for 3 days, 20 µL of CCK-8 detection reagent (Targetmol C005) was added to each well. After incubation for 2-4 hours, OD450 was measured using a microplate reader (Varioskan LUX, Thermo Scientific). After subtracting the blank background, the curve was fitted and the IC50 was calculated using XLfit software.
A word on the IC50: it is the point on the concentration scale where inhibition reaches its midpoint. A lower IC50 goes with inhibition by little substance. Consider `Cc1ccc(C#N)nc1-c1cc(C(C)C)c2nc(Nc3cn(CCO)nc3C)ncc2c1` [I-5], for which the IC50 was not above 20 nM.

Regarding `Cc1nn(CCO)cc1Nc1ncc2cc(-c3ccnc(F)c3F)cc(C(C)C)c2n1` [I-15], the IC50 was in the range of 20 to 100 nM.

As to `Cc1nn(CCO)cc1Nc1ncc2cc(-c3cc(F)ncc3F)cc(C(C)C)c2n1` [I-16], the IC50 is not above 20 nM.

In the case of `CC(=O)c1cc(-c2cc(C(C)C)c3nc(Nc4cn(CCO)nc4C)ncc3c2)ccn1` [I-18], the 50% inhibitory concentration (IC50) was not above 20 nM.

For the molecule `Cc1cnc(F)cc1-c1cc(C(C)C)c2nc(Nc3cnn(CCO)c3C)ncc2c1` [I-19], the IC50 is 20 to 100 nM.

In the case of `Cc1nn(CCO)cc1Nc1ncc2cc(-c3cccnc3C(F)F)cc(C(C)C)c2n1` [I-23], the IC50 lay in the range of 20 to 100 nM.

`CCc1ncccc1-c1cc(C(C)C)c2nc(Nc3cn(CCO)nc3C)ncc2c1` [I-24] registered an IC50 not above 20 nM.

For the molecule `Cc1nn(CCO)cc1Nc1ncc2cc(-c3cncc(Br)c3Cl)cc(C(C)C)c2n1` [I-37], the concentration for half-maximal inhibition (IC50) is not above 20 nM.

The molecule `Cc1nn(CCO)cc1Nc1ncc2cc(-c3cncc(Cl)c3Cl)cc(C(C)C)c2n1` [I-38] returned an IC50 not above 20 nM.

In turn, `Cc1c(Nc2ncc3cc(-c4cnccc4F)cc(C(C)C)c3n2)cnn1CCO` [I-58] displayed an IC50 of 20 to 100 nM.

Turning to `Cc1c(Nc2ncc3cc(-c4cnccc4C#N)cc(C(C)C)c3n2)cnn1CCO` [I-63], the IC50 was 20 to 100 nM.

`Cc1c(F)cncc1-c1cc(C(C)C)c2nc(Nc3cnn(CCO)c3C)ncc2c1` [I-67] yielded an IC50 not above 20 nM.

In turn, `Cc1ncc(F)cc1-c1cc(C(C)C)c2nc(Nc3cnn(CCO)c3C)ncc2c1` [I-69] showed an IC50 of 20 to 100 nM.

`Cc1c(Nc2ncc3cc(-c4c(F)ccnc4F)cc(C(C)C)c3n2)cnn1CCO` [I-70]: the IC50 is not above 20 nM.

`Cc1ccnc(C)c1-c1cc(C(C)C)c2nc(Nc3cnn(CCO)c3C)ncc2c1` [I-71] gave an IC50 not above 20 nM.

`Cc1nn(CCO)cc1Nc1ncc2cc(-c3nccnc3Cl)cc(C(C)C)c2n1` [I-80] gave an IC50 not above 20 nM.

In the case of `Cc1nn(CCO)cc1Nc1ncc2cc(-c3cncc(Cl)n3)cc(C(C)C)c2n1` [I-89], the IC50 lay in the range of 20 to 100 nM.

`COc1cncc(-c2cc(C(C)C)c3nc(Nc4cn(CCO)nc4C)ncc3c2)n1` [I-91]: the IC50 was 20 to 100 nM.

In turn, `Cc1nn(CCO)cc1Nc1ncc2cc(-c3cccnn3)cc(C(C)C)c2n1` [I-115] gave an IC50 of 20 to 100 nM.

The molecule `Cc1ncnc(C)c1-c1cc(C(C)C)c2nc(Nc3cnn(CCO)c3C)ncc2c1` [I-145] yielded an IC50 of 20 to 100 nM.

`Cc1nn(CCO)cc1Nc1ncc2cc(-c3cccc(F)c3F)cc(C(C)C)c2n1` [I-156] had an IC50 not above 20 nM.

Molecule `Cc1nn(CCO)cc1Nc1ncc2cc(-c3cc(F)cc(F)c3)cc(C(C)C)c2n1` [I-158] had an IC50 not above 20 nM.

On to `Cc1nn(CCO)cc1Nc1ncc2cc(-c3cc(F)ccc3F)cc(C(C)C)c2n1` [I-159], for which the IC50 is not above 20 nM.

As for `Cc1ccc(F)cc1-c1cc(C(C)C)c2nc(Nc3cn(CCO)nc3C)ncc2c1` [I-161], the half-inhibitory concentration (IC50) was not above 20 nM.

Molecule `Cc1nn(CCO)cc1Nc1ncc2cc(-c3cccc4c3OCO4)cc(C(C)C)c2n1` [I-163] showed an IC50 not above 20 nM.

Molecule `Cc1nn(CCO)cc1Nc1ncc2cc(-c3cccc4c3OCO4)cc(C3CC3)c2n1` [I-166] registered a concentration for half-maximal inhibition (IC50) of 20 to 100 nM.

Molecule `Cc1c(Nc2ncc3cc(-c4cc(F)ccc4F)cc(C(C)C)c3n2)cnn1CCO` [I-169] returned an IC50 of 20 to 100 nM.

The molecule `Cc1ccc(F)cc1-c1cc(C(C)C)c2nc(Nc3cnn(CCO)c3C)ncc2c1` [I-171] displayed an IC50 not above 20 nM.

Consider `Cc1c[nH]c(=O)cc1-c1cc(C(C)C)c2nc(Nc3cn(CCO)nc3C)ncc2c1` [I-172], for which the IC50 is not above 20 nM.

Turning to `Cc1c[nH]c(=O)cc1-c1cc(C(C)C)c2nc(Nc3cn(C(C)(C)CO)nc3C)ncc2c1` [I-173], the IC50 was in the range of 20 to 100 nM.

`Cc1c[nH]c(=O)cc1-c1cc(C(C)C)c2nc(Nc3cnn(CCO)c3)ncc2c1` [I-174] showed an IC50 not above 20 nM.

The molecule `Cc1c[nH]c(=O)cc1-c1cc(C(C)C)c2nc(Nc3cn(CC(C)(C)O)nc3C)ncc2c1` [I-175] came in with an IC50 not above 20 nM.

Take `Cc1c[nH]c(=O)cc1-c1cc(C(C)C)c2nc(Nc3cnn(CC(C)(C)O)c3C)ncc2c1` [I-180]: the IC50 is not above 20 nM.

Molecule `Cc1ccc2[nH]ncc2c1-c1cc(C(C)C)c2nc(Nc3cn(CCO)nc3C)ncc2c1` [I-182] showed an IC50 not above 20 nM.

With `Cc1ccc2[nH]ncc2c1-c1cc(C(C)C)c2nc(Nc3cnn(CCO)c3C)ncc2c1` [I-183], the IC50 is not above 20 nM.

The molecule `Cc1nn(CCO)cc1Nc1ncc2cc(-c3cncc4ccccc34)cc(C(C)C)c2n1` [I-184] gave an IC50 not above 20 nM.

On to `Cc1cc2cn[nH]c2cc1-c1cc(C(C)C)c2nc(Nc3cn(CCO)nc3C)ncc2c1` [I-185], for which the IC50 was 20 to 100 nM.

Turning to `Cc1nn(CCO)cc1Nc1ncc2cc(-c3c[nH]c4ncccc34)cc(C(C)C)c2n1` [I-186], the half-inhibitory concentration (IC50) was 20 to 100 nM.

On to `Cc1nn(C)cc1Nc1ncc2cc(-c3cc[nH]c(=O)c3)cc(C(C)C)c2n1` [III-1], for which the IC50 fell in the range of 20 to 100 nM.

Turning to `Cc1c[nH]c(=O)cc1-c1cc(C(C)C)c2nc(Nc3cnn(C)c3C)ncc2c1` [III-3], the IC50 was not above 20 nM.

`Cc1c[nH]c(=O)cc1-c1cc(C(C)C)c2nc(Nc3cn(C)nc3Cl)ncc2c1` [III-5] returned an IC50 not above 20 nM.

In turn, `COc1nn(C)cc1Nc1ncc2cc(-c3cc(=O)[nH]cc3C)cc(C(C)C)c2n1` [III-6] yielded an IC50 of 20 to 100 nM.

Molecule `Cc1c[nH]c(=O)cc1-c1cc(C(C)C)c2nc(Nc3cn(C(F)F)nc3C)ncc2c1` [III-7] yielded an IC50 not above 20 nM.

`Cc1c[nH]c(=O)cc1-c1cc(C(C)C)c2nc(Nc3cnn(C(F)F)c3C)ncc2c1` [III-8] had an IC50 not above 20 nM.

Molecule `[2H]C([2H])([2H])n1ncc(Nc2ncc3cc(-c4cc(=O)[nH]cc4C)cc(C(C)C)c3n2)c1C` [III-10] showed an IC50 not above 20 nM.

Take `Cc1c[nH]c(=O)cc1-c1cc(C(C)C)c2nc(Nc3c[nH]nc3C)ncc2c1` [III-11]: the IC50 is not above 20 nM.

In turn, `CCn1cc(Nc2ncc3cc(-c4cc(=O)[nH]cc4C)cc(C(C)C)c3n2)c(C)n1` [III-12] gave an IC50 not above 20 nM.

As for `Cc1c[nH]c(=O)cc1-c1cc(C(C)C)c2nc(Nc3cn(C4CCN(C)CC4)nc3C)ncc2c1` [III-13], the IC50 was not above 20 nM.

`Cc1c[nH]c(=O)cc1-c1cc(C(C)C)c2nc(Nc3cn(C4CCN(C(C)C)CC4)nc3C)ncc2c1` [III-16] displayed a concentration for half-maximal inhibition (IC50) not above 20 nM.

Take `Cc1c[nH]c(=O)cc1-c1cc(C(C)C)c2nc(Nc3cnn(C4CCN(C(C)C)CC4)c3C)ncc2c1` [III-17]: the IC50 is not above 20 nM.

In turn, `Cc1c[nH]c(=O)cc1-c1cc(C(C)C)c2nc(Nc3cn(C4CCN(C5COC5)CC4)nc3C)ncc2c1` [III-18] had an IC50 of 20 to 100 nM.

For `Cc1c[nH]c(=O)cc1-c1cc(C(C)C)c2nc(Nc3cn([C@@H]4C[C@H]5CC[C@@H](C4)N5C)nc3C)ncc2c1` [III-25], the IC50 fell in the range of 20 to 100 nM.

`Cc1c[nH]c(=O)cc1-c1cc(C(C)C)c2nc(Nc3cnn([C@@H]4C[C@H]5CC[C@@H](C4)N5C)c3C)ncc2c1` [III-26] had an IC50 not above 20 nM.

`Cc1c[nH]c(=O)cc1-c1cc(C(C)C)c2nc(Nc3cn(C4CCN(C)CC4)nc3C(F)(F)F)ncc2c1` [III-27] yielded an IC50 not above 20 nM.

On to `Cc1c[nH]c(=O)cc1-c1cc(C(C)C)c2nc(Nc3cnn(C4CCN(C)CC4)c3C(F)(F)F)ncc2c1` [III-28], for which the IC50 was not above 20 nM.

Turning to `CCc1nn(C2CCN(C)CC2)cc1Nc1ncc2cc(-c3cc(=O)[nH]cc3C)cc(C(C)C)c2n1` [III-29], the IC50 was not above 20 nM.

`CCc1c(Nc2ncc3cc(-c4cc(=O)[nH]cc4C)cc(C(C)C)c3n2)cnn1C1CCN(C)CC1` [III-30] returned an IC50 not above 20 nM.

Molecule `COc1nn(C2CCN(C)CC2)cc1Nc1ncc2cc(-c3cc(=O)[nH]cc3C)cc(C(C)C)c2n1` [III-31] gave an IC50 not above 20 nM.

Regarding `COc1nn(C2CCN(C(C)C)CC2)cc1Nc1ncc2cc(-c3cc(=O)[nH]cc3C)cc(C(C)C)c2n1` [III-32], the half-inhibitory concentration (IC50) was not above 20 nM.

`Cc1c[nH]c(=O)cc1-c1cc(C(C)C)c2nc(Nc3cn(-c4cncnc4)nc3C)ncc2c1` [III-34]: the IC50 was 20 to 100 nM.

`Cc1c[nH]c(=O)cc1-c1cc(C(C)C)c2nc(Nc3cn(C4CCCN(C)CC4)nc3C)ncc2c1` (centres unmarked) [III-35]: the IC50 is not above 20 nM.

As to `Cc1c[nH]c(=O)cc1-c1cc(C(C)C)c2nc(Nc3cnn(C4CCCN(C)CC4)c3C)ncc2c1` (centres unmarked) [III-36], the IC50 is not above 20 nM.

Regarding `Cc1c[nH]c(=O)cc1-c1cc(C(C)C)c2nc(Nc3cn(C4CCN(C)C4)nc3C)ncc2c1` (centres unmarked) [III-38], the IC50 is not above 20 nM.

For `Cc1c[nH]c(=O)cc1-c1cc(C(C)C)c2nc(Nc3cn(C4CCN(C(C)C)C4)nc3C)ncc2c1` (centres unmarked) [III-39], the IC50 is not above 20 nM.

In the case of `Cc1c[nH]c(=O)cc1-c1cc(C(C)C)c2nc(Nc3cn(C4COC4)nc3C)ncc2c1` [III-40], the IC50 was not above 20 nM.

Turning to `COCCn1cc(Nc2ncc3cc(-c4cc(=O)[nH]cc4C)cc(C(C)C)c3n2)c(C)n1` [III-42], the IC50 was not above 20 nM.

For `COCCn1ncc(Nc2ncc3cc(-c4cc(=O)[nH]cc4C)cc(C(C)C)c3n2)c1C` [III-43], the IC50 was not above 20 nM.

The molecule `COCCOCCn1cc(Nc2ncc3cc(-c4cc(=O)[nH]cc4C)cc(C(C)C)c3n2)c(C)n1` [III-44] yielded an IC50 of 20 to 100 nM.

For the origin of these results see patent EP4803513A1, “SUBSTITUTED QUINAZOLINE COMPOUND, PREPARATION METHOD THEREFOR, PHARMACEUTICAL COMBINATION THEREOF, AND USE THEREOF” (Hongyun Biotech Co., Ltd., priority 2023, dated 2025).
